Measurements from patent US8680153B2, “Method for correcting a lipid imbalance in a subject” (The Royal Institution for the Advancement of …, priority 2005, dated 2014).
“Also recorded” adds a separate entry of the source.

Key:
[1] = test system: cytokines/chemokines (IL-17, IL-1β, IL-6, IL-7, IL-9, IL-10, IL-15, G-CSF, MIP-1a, KC); assay: Cytokine/chemokine levels in lung homogenates of infected mice; format: in vivo
Description: Lung Homogenates. Lungs from infected mice were harvested and homogenized for 60 seconds at high speed (homogenizer PT10135; Brinkmann Instruments Co., Mississauga, ON) in 4 mL of sterile PBS (INVITROGEN™). Serial, 10-fold dilutions of lung homogenates were plated on petri dishes containing TSA. The number of CFU per lung was counted after overnight incubation at 37° C. For cytokine measurements, lung homogenates were centrifuged at 1500×g at 4° C. for 10 minutes; the supernatants were then removed, aliquoted in new tubes and stored at −20° C. until assayed for cytokine concentrations.
Cytokine/chemokine measurements. The levels of 10 cytokines/chemokines (IL-1β, IL-6, IL-7, IL-9, IL-10, IL-15, IL-17, G-CSF (granulocyte colony-stimulating factor), MIP-1a (macrophage inflammatory protein 1 alpha), and N51/KC (cytokine-induced neutrophil chemoattractant), were assessed in lung homogenates prepared from infected animals with the Mouse Cytokine/Chemokine LINCOplex kit (Linco Research, Inc, St-Charles, Mo.) using Luminex™ technology and assayed with the Luminex100LS™ system by Linco Research, Inc. The cytokine detection limit for this assay was 3.2 pg/ml.

[2] = Weight loss after P. aeruginosa lung infection; format: in vivo, mice; settings: for Mean weight loss (% of initial weight): mean ± SEM
Description: (§1) Fenretinide Diet Supplementation. Examples 2 to 6: fenretinide (Sigma-Aldrich, Oakville, ON) powder was resuspended in 95% ethanol and subsequently incorporated in the Peptamen liquid diet. It was protected from light and kept at 4° C. before being given to the mice (5 mg/kg per day per mouse). Mock-treated diets were prepared similarly by adding ethanol to the Peptamen diet but omitting the fenretinide supplementation. The diet was given every morning for 28 consecutive days with specific monitoring of the quantity consumed by the mice in each cage. Examples 7 to 12: fenretinide powder was kindly provided by Dr. Robert Smith (NIH; Bethesda, Md., USA). Fenretinide was resuspended in 95% ethanol to make a 2 μg/μL concentration. Approximately 40 μL of this preparation was incorporated into the Peptamen liquid diet (5 mg/kg per day per mouse). The prepared food containing fenretinide was then stored in the dark at 4° C. for no more than 3 hours prior to being administered to the mice. To ensure that the entire drug dose was consumed, the mice were given 10 mL of fenretinide-treated Peptamen, which represents ⅔ of the daily mouse food consumption, in the late afternoon. The remaining 5 mL of Peptamen (without fenretinide) was given the following morning. Mice were treated twice a week for 4 weeks. During the treatment period each mouse was kept in a separate cage (including WT mice) and was monitored to ensure that the entire amount of Peptamen containing the fenretinide or with out was consumed. The diet for the mock-treated control group was prepared and administered similarly to that described above, by adding the same volume of ethanol to the Peptamen diet but omitting the fenretinide supplementation.
Mouse Lung Infection. Mice were anaesthetized with a combination of ketamine (7.5 mg/mL) and xylazine (0.5 mg/mL) administered intraperitoneally at a dose of 20 mL/kg of body weight. Once the mouse was successfully anaesthetized, the animal was installed under binoculars (Microscope M650, Wild Leitz, Willowdale, ON) in the vertical position and held on a restraining board by holding the animal by its upper incisor teeth (Guilbault, et al. (2005) supra). The tongue was then gently pulled to the side of the mouth and a 26-G gavage needle was inserted into the mouth and guided through the pharynx gently touching the vocal cords to see the lumen of the trachea; the needle was then introduced into the trachea to reach the lung for the bilateral injection of the 50 microliter inoculum. After inoculation, the animal regained righting reflex within an hour. A final dose of 1×10^6 P. aeruginosa was used for infection using wild-type and Cftr-KO mice. Mice were monitored 3 times daily; the maximum weight loss allowed was 15%. Mice were sacrificed by CO2 overdose.

[3] = test system: P. aeruginosa; assay: Bacterial load (CFU) in the lungs of infected mice; format: in vivo
Description: P. aeruginosa Inoculum Preparation. In order to establish a model of prolonged lung infection, bacteria-impregnated agar beads were freshly prepared the day before each experiment according to established methods (Guilbault, et al. (2005) Laboratory Animals 39:336-352), and stored at 4° C. overnight. Briefly, the bacteria (P. aeruginosa strain 508) from an overnight culture were grown for approximately 3 hours in a shaking incubator at 37° C., until it reached a mid-log phase. The log-phase bacteria were concentrated and resuspended in 5 mL of Dulbecco's phosphate-buffered saline (PBS; INVITROGEN™, Mississauga, ON). A 5 mL aliquot of the concentrated bacterial broth was added to 52° C. 1.5% trypticase soy agar (DIFCO®, Detroit, Mich.) (agarose beads free of bacteria were prepared using PBS instead of a bacterial suspension). This mixture was quickly added to 52° C. heavy mineral oil and stirred rapidly, first at room temperature for 6 minutes, followed by ice cooling with continuous stirring for 10 minutes. The oil-agar mixture was centrifuged to sediment the beads. The beads were washed with PBS and their size was verified microscopically and only those preparations containing beads predominantly 100-250 micrometers in diameter were used as inoculum. Inoculum was prepared by diluting the beads suspension to 1×10^6 CFUs per 50 μl (injection volume).
Mouse Lung Infection. Mice were anaesthetized with a combination of ketamine (7.5 mg/mL) and xylazine (0.5 mg/mL) administered intraperitoneally at a dose of 20 mL/kg of body weight. Once the mouse was successfully anaesthetized, the animal was installed under binoculars (Microscope M650, Wild Leitz, Willowdale, ON) in the vertical position and held on a restraining board by holding the animal by its upper incisor teeth (Guilbault, et al. (2005) supra). […] Mice were monitored 3 times daily; the maximum weight loss allowed was 15%. […]
Lung Homogenates. […] The number of CFU per lung was counted after overnight incubation at 37° C. […]

[4] = test system: phospholipid-bound AA and DHA; assay: Essential fatty acid profile in plasma, biweekly treatment for 4 weeks (8 treatments); format: in vivo, mice
Description: as §1
Fatty Acid Analysis. Minced tissues isolated from mice were immersed in 1 mM BHA in chloroform and methanol (2:1 vol). For plasma samples (mouse and human), 100 μL of plasma was added to 1 mL of BHA. Lipids were then extracted from all samples according to standard methods (Folch, et al. (1957) J. Biol. Chem. 226:497-509). Identification of phospholipids was carried out by thin-layer chromatography extraction (Van Handel & Zilversmit (1957) J. Lab. Clin. Med. 50:152-157). Also, fractionated lipids were dried and resuspended in heptane:methanol:sulfuric acid (5:1:1) for free fatty acid extraction. Diazomethane was used to esterify the fatty acids released and the esters were identified by GC/MS (Hewlett Packard 5880A, WCOT capillary column (Supelco-10, 35 m×0.5 mm, 1 μm thick)) using commercial standards (Sigma-Aldrich).

[5] = cited from earlier work
[6] = Cftr-KO mice, day 3 post-infection

CC1=C(/C=C/C(C)=C/C=C/C(C)=C/C(=O)Nc2ccc(O)cc2)C(C)(C)CCC1 [fenretinide, all-trans-N-(4-hydroxyphenyl) retinamide]
Levels of IL-1β, IL-9, KC and MIP-1a vs mock-treated ([1]; Cftr-KO mice, not statistically significant): trend towards decreased levels
IL-17 level, decrease vs Cftr-KO controls ([1]; Cftr-KO mice, p=0.049): 2.9 fold
All cytokines tested, fenretinide-treated vs untreated ([1]; WT mice): no difference
IL-6, G-CSF, IL-15, IL-10 and IL-7 levels ([1]; time point tested): not affected
Mean weight loss (% of initial weight) ([2]; Cftr-KO mice, day 1 post-infection): −4.0 ± 1.1 % of initial weight
Mean weight loss (% of initial weight) ([2]; Cftr-KO mice, day 2 post-infection): −12.9 ± 0.9 % of initial weight
Mean weight loss (% of initial weight) [2, 6]: −15.3 ± 1.8 % of initial weight
Mean weight loss (% of initial weight) ([2]; Wild-type mice, day 1 post-infection): −4.8 ± 0.4 % of initial weight
Mean weight loss (% of initial weight) ([2]; Wild-type mice, day 2 post-infection): −9.9 ± 0.5 % of initial weight
Mean weight loss (% of initial weight) ([2]; Wild-type mice, day 3 post-infection): −11.1 ± 1.2 % of initial weight
Effect on mean weight loss, fenretinide-treated vs mock-treated ([2]; day 1 to day 3 post-infection): no significant difference
Decrease of median number of bacteria vs untreated Cftr-KO [3, 6]: about 10 fold
Median bacterial load in the lungs ([3]; fenretinide-treated Cftr-KO mice, day 3 post-infection, p=0.004 vs untreated): 3.8×10^4 CFU/lung
Effect on median number of bacteria in the lungs vs untreated infected controls ([3]; wild-type mice, p=0.240): no significant effect
Concentration of phospholipid-bound AA in plasma ([4]; Cftr-KO mice, 8 treatments, p<0.05): brought down significantly; also recorded: decreased significantly
Phospholipid-bound DHA, increase vs control Cftr-KO ([4]; Cftr-KO mice, plasma, 8 treatments): 2 fold
DHA:AA ratio, increase vs untreated Cftr-KO ([4]; Cftr-KO mice, plasma, 8 treatments, p<0.05): 2 fold
DHA bound in phospholipids, increase ([4]; WT and Cftr-KO mice, after 4 weeks of biweekly treatments (FIG. 14B legend)): 2 fold
Generalized vascular damage in humans ([5]; clinical trials (Reynolds and Lemons 2001)): does not induce generalized vascular damage
Reversibility of side effects following discontinuation of the treatment ([5]; neuroblastoma subjects 2-21 years (Garaventa 2003)): ≤ 7 days
Subjects in whom side effects occurred ([5]; neuroblastoma subjects 2-21 years, oral once a day in 28-day courses (Garaventa 2003)): 15 of the 45
